Laboratory results taken from patent publication US8202910B2 (Sequella, Inc., priority 2006, dated 2012).
In brackets after ≈: the same amount, converted by molar mass. Several values for one entry are separate records, joined by “and”; a condition that tells them apart may be missing. Equal entries are not always repeated.

What was measured:
[1] = Maximum tolerated dose, one-time gavage dose in mice; format: in vivo
Method: […] Each dose of each compound consisted of one group of 3 mice. Monitoring of the mice was done twice a day for the duration of the experiment. […] The MTD (mg/kg) is the highest dose that results in no lethality/tissue abnormality.
• 1. […] The compounds are dissolved in the appropriate concentration of ethanol in distilled water and administered in a volume of 0.2 ml per mouse. • 2. Observation of mice: Mice will be observed 4 and 6 hours post administration, then twice daily for one week. Survival and body weight of mice will be closely monitored throughout the study. • 3. […] Critical organs will be aseptically removed and observed; tissues from the liver, heart, and kidneys are extracted and placed into 10% formalin solution. These fixed tissues are sectioned and examined for abnormalities resulting from drug toxicity.

M. tuberculosis H37Rv = test: In vivo efficacy, mice infected i.v. with M. tuberculosis, CFU in spleen and lungs; set-up: species or system C57BL/6 mice
dopamine receptor D1 = molecular target: T1, dopamine receptor D1 (Homo sapiens, UniProt P21728); test: CEREP receptor binding, D1; conditions: tested at 10 μM; read-out: inhibition of control specific binding
T1 construct: CEREP (contract testing)
Source text: In vitro testing for safety pharmacology and early ADMET (Absorption, Distribution, Metabolism, Excretion, Toxicity) studies of compound 109 were contracted out to CEREP (15318 NE 95th Street, Redmond, Wash., 98052, USA www.cerep.com) under a service agreement and included evaluation of inhibitory binding to a panel of 27 standard receptors and three transporters (See FIG. 60 (Table 31) and FIG. 61 (Table 32)) which included: adenosine receptors (A1 and A2A), adrenergic receptors (alpha 1, alpha 2, beta 1), angiotensin II receptor (AT1), benzodiazapene receptor (BZD), bradykinin receptor (B2), cholecystokinin receptor (CCK1), dopamine receptors (D1, D2S), endothelin receptor (ETA), GABA receptor (GABA), glutamate receptor (NMDA), histamine receptor (H1 central), melanocortin receptor (MC4), muscarinic receptor (M, non-selective), neurokinin receptor (NK1), neuropeptide Y receptor (Y), nicotinic receptor (neuronal, alpha-BGTX-insensitive), opiate receptor (non-selective opiate), orphanin receptor (ORL1), phencyclidine receptor (PCP), serotonin receptor (5-HT), sigma receptor (sigma non-selective), steroid receptor (glucocorticoid receptor, GR), and NE, DA, and 5-HT transporters.
The specific ligand binding to the receptors is defined as the difference between the total binding and the nonspecific binding determined in the presence of an excess of unlabelled ligand.

[2] = system: Propionibacterium acnes, Bacteroides fragilis, and Clostridium difficile; test: Spectrum of activity MIC (NCCLS), anaerobes; format: cell-based
Method: Compound 109 was tested against a representative panel of commonly encountered clinical microorganisms comprising opportunistic pathogens, target pathogens and normal human flora. The spectrum of activity of compound 109 was evaluated by performing antimicrobial susceptibility testing against a collection of aerobic and anaerobic bacteria, fungi, and mycobacteria. MICs for all organisms were established using the appropriate NCCLS (National Committee for Clinical Laboratory Standards) recommended standard methods and quality control strains.

Aspergillus fumigatus = test: Spectrum of activity MIC, broth microdilution NCCLS M38-A (mold); format: cell-based; conditions: three isolates
Method: Compound 109 was tested against a representative panel of commonly encountered clinical microorganisms comprising opportunistic pathogens, target pathogens and normal human flora. The spectrum of activity of compound 109 was evaluated by performing recommended broth microdilution methods. NCCLS M27-A2, 2003 for yeast and NCCLS M38-A, 2003 for mold.

M. kansasii = test: Spectrum of activity MIC, MOTT, agar proportion method; format: cell-based; conditions: Mycobacterium kansasii; three tested
M. fortuitum = test: Spectrum of activity MIC, rapid-grower, broth microdilution (NCCLS M24-A); format: cell-based; conditions: Mycolicibacterium fortuitum; all strains tested
[3] = Metabolism by human liver microsomes; format: in vitro ADME; conditions: after 40 min incubation
Source text: Two of the groups contained oxidized metabolites. […] Based on the finding that SQ109 was metabolized rapidly by CYP, it is possible that its antimycobacterial activity may come from one of its metabolites. It is conceivable that SQ109 is a prodrug and requires activation by mycobacterial CYP. We speculate that when SQ109 is used in combination with rifampicin, the latter induces certain CYP activity within the Mycobacteria. Elevated CYP activity activates the SQ109 prodrug more efficiently, resulting in an apparent synergistic activity of the two drugs.

T1 sequence (P21728 whole entry): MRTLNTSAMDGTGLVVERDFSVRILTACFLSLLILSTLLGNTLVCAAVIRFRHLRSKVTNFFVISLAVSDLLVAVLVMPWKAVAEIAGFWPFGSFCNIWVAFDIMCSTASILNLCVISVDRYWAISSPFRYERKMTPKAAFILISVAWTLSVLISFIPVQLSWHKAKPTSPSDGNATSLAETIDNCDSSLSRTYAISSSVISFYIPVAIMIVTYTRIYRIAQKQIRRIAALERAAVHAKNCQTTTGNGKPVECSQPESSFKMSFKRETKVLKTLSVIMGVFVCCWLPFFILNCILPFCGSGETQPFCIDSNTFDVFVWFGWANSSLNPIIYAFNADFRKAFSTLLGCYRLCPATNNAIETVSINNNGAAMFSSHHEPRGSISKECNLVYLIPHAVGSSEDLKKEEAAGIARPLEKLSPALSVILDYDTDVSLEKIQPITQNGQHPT

Compound: CC(C)=CCC/C(C)=C/CNCCNC1C2CC3CC(C2)CC1C3 (stereo not shown) [Compound 109, N-Geranyl-N′-(2-adamanthyl)ethane-1,2-diamine]
- Mice ([1]; 109 as HCl salt at 800 mg/kg, day 1): 3
- Mice ([1]; 109 as HCl salt at 800 mg/kg, day 2): 2/1
- Mice ([1]; 109 as HCl salt at 800 mg/kg, day 3): 1/1
- Mice ([1]; 109 as HCl salt at 800 mg/kg, day 4): 1
- Mice ([1]; 109 as HCl salt at 800 mg/kg, day 5): 1
- Mice ([1]; 109 as HCl salt at 800 mg/kg, day 6): 1
- Mice ([1]; 109 as HCl salt at 800 mg/kg, day 7): 1
- Day of death ([1]; 109 as HCl salt at 800 mg/kg, 800 mg/kg): 2 and 3
- Mice ([1]; 109 as TFA salt at 800 mg/kg, day 1): 1
- Mice ([1]; 109 as TFA salt at 800 mg/kg, day 2): 1
- Mice ([1]; 109 as TFA salt at 800 mg/kg, day 3): 1
- Mice ([1]; 109 as TFA salt at 800 mg/kg, day 4): 1
- Mice ([1]; 109 as TFA salt at 800 mg/kg, day 5): 1
- Mice ([1]; 109 as TFA salt at 800 mg/kg, day 6): 1
- Mice ([1]; 109 as TFA salt at 800 mg/kg, day 7): 1
- Mice ([1]; 109 at 100 mg/kg, day 1): 3
- Mice ([1]; 109 at 100 mg/kg, day 2): 3
- Mice ([1]; 109 at 100 mg/kg, day 3): 3
- Mice ([1]; 109 at 100 mg/kg, day 4): 3
- Mice ([1]; 109 at 100 mg/kg, day 6): 3
- Mice ([1]; 109 at 100 mg/kg, day 7): 3
- Mice ([1]; 109 at 300 mg/kg, day 1): 3
- Mice ([1]; 109 at 300 mg/kg, day 2): 3
- Mice ([1]; 109 at 300 mg/kg, day 3): 3
- Mice ([1]; 109 at 300 mg/kg, day 4): 3
- Mice ([1]; 109 at 300 mg/kg, day 6): 3
- Mice ([1]; 109 at 300 mg/kg, day 7): 3
- Mice ([1]; 109 at 600 mg/kg, day 1): 3
- Mice ([1]; 109 at 600 mg/kg, day 2): 3
- Mice ([1]; 109 at 600 mg/kg, day 3): 3
- Mice ([1]; 109 at 600 mg/kg, day 4): 3
- Mice ([1]; 109 at 600 mg/kg, day 6): 3
- Mice ([1]; 109 at 600 mg/kg, day 7): 3
- Mice ([1]; 109 at 1000 mg/kg, day 1): 3
- Mice ([1]; 109 at 1000 mg/kg, day 2): 2
- Mice ([1]; 109 at 1000 mg/kg, day 3): 2
- Mice ([1]; 109 at 1000 mg/kg, day 4): 1
- Mice ([1]; 109 at 1000 mg/kg, day 6): 0
- MTD at 1 week ([1]; female, C57BL/6, mouse, in vivo, po, one-time dose by gavage): 600 mg/kg
- changes in organs ([1]; mice surviving one week): No visible changes in organs
- fatal dose ([1]; one-time dose, two of 3 mice died within 3 days): 800 mg/kg
- difference with untreated control, spleen and lung (M. tuberculosis H37Rv; 0.1 mg/kg after 4 weeks of therapy, 5×10^6 CFU): minimal but sufficient difference with untreated control
- activity in the spleen compared with EMB (M. tuberculosis H37Rv; 1 mg/kg and 10 mg/kg, 5×10^5 CFU, chemotherapy from day 20): equal to that of EMB at 100 mg/kg
- activity in the lung compared with EMB (M. tuberculosis H37Rv; 10 mg/kg after 4 and 6 weeks, 5×10^5 CFU): more effective than EMB at 100 mg/kg
- activity in spleen and lung compared with EMB (M. tuberculosis H37Rv; 10 mg/kg and 25 mg/kg, shorter model, 5×10^6 CFU, 4 weeks): equal to that of EMB at 100 mg/kg
- activity (CFUs in spleen and lungs) compared with ethambutol (M. tuberculosis H37Rv; doses 1 and 10 mg/kg, orally by gavage): equal to that of ethambutol at 100 mg/kg
- inhibition at 10 µM (dopamine receptor D1): 51%
- MIC [2]: 16 to 64 µg/mL (≈ 48.4 to 194 µM)
- MIC (Aspergillus fumigatus): 16 µg/mL (≈ 48.4 µM)
- MIC (M. kansasii): 16 µg/mL (≈ 48.4 µM)
- MIC (M. fortuitum): 1 µg/mL (≈ 3.03 µM)
- SQ109 remaining [3]: 8%
